Test results from patent US9249127B2 (Orion Corporation, priority 2012, dated 2016).
Like-named read-outs stand apart in the source and are kept apart here.

Molecular target: T1, alpha2A receptor (Homo sapiens, UniProt P08913)
T1 sequence (P08913 1-465): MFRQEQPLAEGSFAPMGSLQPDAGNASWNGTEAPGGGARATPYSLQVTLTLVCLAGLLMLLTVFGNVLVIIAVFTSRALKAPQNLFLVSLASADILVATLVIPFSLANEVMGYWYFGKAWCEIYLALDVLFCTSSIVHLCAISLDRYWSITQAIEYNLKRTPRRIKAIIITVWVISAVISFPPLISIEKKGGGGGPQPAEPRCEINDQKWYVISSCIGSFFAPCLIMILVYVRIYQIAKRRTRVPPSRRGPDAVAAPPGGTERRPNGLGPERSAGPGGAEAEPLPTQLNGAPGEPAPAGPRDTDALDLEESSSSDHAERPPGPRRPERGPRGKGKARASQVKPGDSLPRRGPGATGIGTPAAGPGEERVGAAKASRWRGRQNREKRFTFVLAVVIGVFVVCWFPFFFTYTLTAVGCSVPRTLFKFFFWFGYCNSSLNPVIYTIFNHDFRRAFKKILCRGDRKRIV
Assay: Alpha2A agonistic activity in vitro
Assay type: cell-based

[1] = Alpha2A Agonism pEC50, in vitro
[2] = in vitro, read-out: Alpha2A Agonism pEC50 (converted)

Compound	EC50 [1] [nM]	Alpha2A Intrinsic Activity (in vitro)	EC50 [2] [nM]	Alpha2A Agonism pEC50 (in vitro)
C[C@@H]1Cc2c(Br)cccc2C(C2=NCCN2)O1 (stereo partly drawn) [Example 32, 2-((3R)-5-bromo-3-methylisochroman-1-yl)-4,5-dihydro-1H-imidazole]	1	0.92		
FC(F)(F)Cc1cccc2c1CCOC2C1=NCCN1 (centres unmarked) [Example 72, 2-(5-(2,2,2-Trifluoroethyl)isochroman-1-yl)-4,5-dihydro-1H-imidazole]		0.09	1580	
CC1(C2=NCCN2)OCCc2c(Br)cccc21 (single isomer, unassigned) [Example 106, 2-(5-bromo-1-methylisochroman-1-yl)-4,5-dihydro-1H-imidazole]		0.64	158	
CC1Cc2c(Br)cccc2C(C2=NCCN2)O1 (centres unmarked) [Example 29, 2-(5-Bromo-3-methylisochroman-1-yl)-4,5-dihydro-1H-imidazole]	2	0.99		
CCc1cccc2c1C[C@@H](C)OC2(C)C1=NCCN1 (stereo partly drawn) [Example 73, 2-((3R)-5-ethyl-1,3-dimethylisochroman-1-yl)-4,5-dihydro-1H-imidazole]		0.19	1580	
CCc1cccc2c1C[C@@H](CC)OC2C1=NCCN1 (stereo partly drawn) [Example 47, 2-((3R)-3,5-diethylisochroman-1-yl)-4,5-dihydro-1H-imidazole]		0.22	2000	
C[C@@H]1Cc2c(OC(F)F)cccc2C(C2=NCCN2)O1 (stereo partly drawn) [Example 93, 2-((3R)-5-(difluoromethoxy)-3-methylisochroman-1-yl)-4,5-dihydro-1H-imidazole]	31.6	0.64		
NC(=O)c1cccc2c1CCOC2C1=NCCN1 (centres unmarked) [Example 56, 1-(4,5-Dihydro-1H-imidazol-2-yl)isochroman-5-carboxamide]		0.11	3160	
CCC1Cc2c(O)cccc2C(C2=NCCN2)O1 (centres unmarked) [Example 76, 1-(4,5-Dihydro-1H-imidazol-2-yl)-3-ethylisochroman-5-ol]		0.15	631	
COc1cccc2c1CCSC2C1=NCCN1 (centres unmarked) [Example 70, 2-(5-Methoxyisothiochroman-1-yl)-4,5-dihydro-1H-imidazole]		0.07	2000	
Cc1cccc2c1CCOC2C1=NCCN1 (centres unmarked) [Example 1, 2-(5-Methylisochroman-1-yl)-4,5-dihydro-1H-imidazole]	3.98	0.89		
C[C@H]1Cc2c(Cl)cccc2C(C2=NCCN2)O1 (stereo partly drawn) [Example 34, 2-((3S)-5-chloro-3-methylisochroman-1-yl)-4,5-dihydro-1H-imidazole]	63.1	0.78		
CCc1cccc2c1CC(C)OC2C1=NCCN1 (centres unmarked) [Example 39, 2-(5-Ethyl-3-methylisochroman-1-yl)-4,5-dihydro-1H-imidazole]	15.8	0.67		
CCc1cccc2c1CCOC2C1=NCCN1 (centres unmarked) [Example 8]	39.8	0.77		
Cc1cc(C)c2c(c1)C(C1=NCCN1)OCC2 (centres unmarked) [Example 59, 2-(5,7-Dimethylisochroman-1-yl)-4,5-dihydro-1H-imidazole]	39.8	0.81		
COc1cccc2c1C[C@@H](C)OC2(C)C1=NCCN1 (stereo partly drawn) [Example 71, 2-((3R)-5-methoxy-1,3-dimethylisochroman-1-yl)-4,5-dihydro-1H-imidazole]		0.33	2000	
CC[C@@H]1Cc2c(OC)cccc2C(C2=NCCN2)O1 (stereo partly drawn) [Example 91, 2-((3R)-3-ethyl-5-methoxyisochroman-1-yl)-4,5-dihydro-1H-imidazole]	39.8	0.51		
FC(F)(F)Oc1cccc2c1CCOC2C1=NCCN1 (centres unmarked) [Example 79, 2-(5-(Trifluoromethoxy)isochroman-1-yl)-4,5-dihydro-1H-imidazole]		0.30	398	
CCCC1Cc2c(Br)cccc2C(C2=NCCN2)O1 (single isomer, unassigned) [Example 88, 2-((3)-5-bromo-3-propylisochroman-1-yl)-4,5-dihydro-1H-imidazole]	50.1	0.50		
CC1Cc2c(Cl)cccc2C(C)(C2=NCCN2)O1 (centres unmarked) [Example 28, 2-(5-Chloro-1,3-dimethylisochroman-1-yl)-4,5-dihydro-1H-imidazole]		0.64	1000	
Cc1cccc2c1CC(CC(F)(F)F)OC2C1=NCCN1 (single isomer, unassigned) [Example 86, 2-((3)-5-methyl-3-(2,2,2-trifluoroethyl)isochroman-1-yl)-4,5-dihydro-1H-imidazole]		0.28	100	

Compound	EC50 [1] [nM]	Alpha2A Intrinsic Activity (in vitro)	EC50 [2] [nM]	Alpha2A Agonism pEC50 (in vitro)
CCc1cccc2c1C[C@@H](C)OC2C1=NCCN1 (stereo partly drawn) [Example 45, 2-((3R)-5-ethyl-3-methylisochroman-1-yl)-4,5-dihydro-1H-imidazole]	6.31	0.73		
Cc1cccc2c1C[C@@H](C)OC2(C)C1=NCCN1 (stereo partly drawn) [Example 23, 2-((3R)-1,3,5-trimethylisochroman-1-yl)-4,5-dihydro-1H-imidazole]		0.68	316	
OCc1cccc2c1CCOC2C1=NCCN1 (centres unmarked) [Example 10, (1-(4,5-Dihydro-1H-imidazol-2-yl)isochroman-5-yl)methanol]	20	0.90		
Clc1cccc2c1CCOC2C1=NCCN1 (single isomer, unassigned) [Example 100, 2-(5-chloroisochroman-1-yl)-4,5-dihydro-1H-imidazole]	3.98	0.91		
N#Cc1cccc2c1CCOC2C1=NCCN1 (centres unmarked) [Example 5, 1-(4,5-Dihydro-1H-imidazol-2-yl)isochroman-5-carbonitrile]		0.59	1260	
FC(F)(F)CC1Cc2c(Br)cccc2C(C2=NCCN2)O1 (single isomer, unassigned) [Example 68]		0.25		
CCCC1Cc2c(Br)cccc2C(C2=NCCN2)O1 (centres unmarked) [Example 40, 2-(5-Bromo-3-propylisochroman-1-yl)-4,5-dihydro-1H-imidazole]		0.31	316	
COc1cccc2c1CCOC2C1=NCCN1 (single isomer, unassigned) [Example 82, 2-(5-methoxyisochroman-1-yl)-4,5-dihydro-1H-imidazole]		0.52	158	
Cc1cccc2c1C[C@H](C)OC2C1=NCCN1 (stereo partly drawn) [Example 37, 2-((3S)-3,5-dimethylisochroman-1-yl)-4,5-dihydro-1H-imidazole]		0.63	316	
2-(5-methoxy-3-(2,2,2-trifluoroethyl)methyl-isochroman-1-yl)-4,5-dihydro-1H-imidazole [Example 77]		0.16		6.3
COc1cccc2c1CCOC2C1=NCCN1 (single isomer, unassigned) [Example 97, 2-(5-methoxyoisochroman-1-yl)-4,5-dihydro-1H-Imidazole]		0.69	15.8	
CC[C@@H]1Cc2c(cccc2C(F)(F)F)C(C2=NCCN2)O1 (stereo partly drawn) [Example 16, 2-((3R)-3-ethyl-5-(trifluoromethyl)isochroman-1-yl)-4,5-dihydro-1H-imidazole]		0.51	50.1	
Cc1cccc2c1CC(CC(F)(F)F)OC2C1=NCCN1 (centres unmarked) [Example 52, 2-(5-Methyl-3-(2,2,2-trifluoroethyl)isochroman-1-yl)-4,5-dihydro-1H-imidazole]		0.41	100	
c1cc2c3c(cccc3c1)C(C1=NCCN1)OC2 (centres unmarked) [Example 102, 2-(1,3-Dihydrobenzo[de]isochromen-1-yl)-4,5-dihydro-1H-imidazole]	2.51	0.82		
CCc1cccc2c1CCOC2C1=NCCN1 (single isomer, unassigned) [Example 96]	20	0.66		
Brc1cccc2c1CCSC2C1=NCCN1 (centres unmarked) [Example 65, 2-(5-Bromoisothiochroman-1-yl)-4,5-dihydro-1H-imidazole]	79.4	0.56		
CC1(C2=NCCN2)OCc2cccc3cccc1c23 (centres unmarked) [Example 98, 2-(1-Methyl-1,3-dihydrobenzo[de]isochromen-1-yl)-4,5-dihydro-1H-imidazole]	12.6	0.58		
Fc1cccc2c1CCOC2C1=NCCN1 (centres unmarked) [Example 42, 2-(5-Fluoroisochroman-1-yl)-4,5-dihydro-1H-imidazole]	39.8	0.62		
Cc1cccc2c1C[C@@H](C)OC2C1=NCCN1 (stereo partly drawn) [Example 36, 2-((3R)-3,5-dimethylisochroman-1-yl)-4,5-dihydro-1H-imidazole]	1.58	0.90		
Cc1cc(O)cc2c1CCOC2C1=NCCN1 (centres unmarked) [Example 75, 1-(4,5-Dihydro-1H-imidazol-2-yl)-5-methylisochroman-7-ol]		0.64	631	
C#Cc1cccc2c1CCOC2C1=NCCN1 (centres unmarked) [Example 15, 2-(5-Ethynylisochroman-1-yl)-4,5-dihydro-1H-imidazole]	15.8	0.88		
